According to ChEMBL document CHEMBL1152560, “Substituted 2-arylbenzothiazoles as kinase inhibitors: hit-to-lead optimization” (Bioorg Med Chem, 2009):

Columns and labels:
[1] = target: T1, Serine/threonine-protein kinase 4 (Homo sapiens) (UniProt Q13043); assay: Residual activity of MST1 at 0.1 uM by microplate scintillation counting
T1 sequence (whole entry): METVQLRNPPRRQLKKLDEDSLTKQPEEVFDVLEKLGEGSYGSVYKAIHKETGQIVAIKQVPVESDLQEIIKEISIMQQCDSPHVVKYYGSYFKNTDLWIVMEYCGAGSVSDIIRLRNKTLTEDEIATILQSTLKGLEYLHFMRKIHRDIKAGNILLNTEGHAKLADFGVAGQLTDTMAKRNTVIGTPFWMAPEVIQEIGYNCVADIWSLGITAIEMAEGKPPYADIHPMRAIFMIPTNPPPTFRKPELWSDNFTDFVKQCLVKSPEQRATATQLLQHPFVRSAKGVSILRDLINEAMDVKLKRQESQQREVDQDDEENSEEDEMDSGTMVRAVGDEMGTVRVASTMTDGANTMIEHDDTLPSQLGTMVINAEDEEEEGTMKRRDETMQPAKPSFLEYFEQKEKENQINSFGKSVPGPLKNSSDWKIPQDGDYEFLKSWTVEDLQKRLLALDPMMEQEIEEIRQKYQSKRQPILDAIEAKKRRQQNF

[2] = target: T2, Ephrin type-B receptor 2 (Homo sapiens) (UniProt P29323); assay: Residual activity of EPHB2 at 1 uM by microplate scintillation counting
T2 sequence (whole entry): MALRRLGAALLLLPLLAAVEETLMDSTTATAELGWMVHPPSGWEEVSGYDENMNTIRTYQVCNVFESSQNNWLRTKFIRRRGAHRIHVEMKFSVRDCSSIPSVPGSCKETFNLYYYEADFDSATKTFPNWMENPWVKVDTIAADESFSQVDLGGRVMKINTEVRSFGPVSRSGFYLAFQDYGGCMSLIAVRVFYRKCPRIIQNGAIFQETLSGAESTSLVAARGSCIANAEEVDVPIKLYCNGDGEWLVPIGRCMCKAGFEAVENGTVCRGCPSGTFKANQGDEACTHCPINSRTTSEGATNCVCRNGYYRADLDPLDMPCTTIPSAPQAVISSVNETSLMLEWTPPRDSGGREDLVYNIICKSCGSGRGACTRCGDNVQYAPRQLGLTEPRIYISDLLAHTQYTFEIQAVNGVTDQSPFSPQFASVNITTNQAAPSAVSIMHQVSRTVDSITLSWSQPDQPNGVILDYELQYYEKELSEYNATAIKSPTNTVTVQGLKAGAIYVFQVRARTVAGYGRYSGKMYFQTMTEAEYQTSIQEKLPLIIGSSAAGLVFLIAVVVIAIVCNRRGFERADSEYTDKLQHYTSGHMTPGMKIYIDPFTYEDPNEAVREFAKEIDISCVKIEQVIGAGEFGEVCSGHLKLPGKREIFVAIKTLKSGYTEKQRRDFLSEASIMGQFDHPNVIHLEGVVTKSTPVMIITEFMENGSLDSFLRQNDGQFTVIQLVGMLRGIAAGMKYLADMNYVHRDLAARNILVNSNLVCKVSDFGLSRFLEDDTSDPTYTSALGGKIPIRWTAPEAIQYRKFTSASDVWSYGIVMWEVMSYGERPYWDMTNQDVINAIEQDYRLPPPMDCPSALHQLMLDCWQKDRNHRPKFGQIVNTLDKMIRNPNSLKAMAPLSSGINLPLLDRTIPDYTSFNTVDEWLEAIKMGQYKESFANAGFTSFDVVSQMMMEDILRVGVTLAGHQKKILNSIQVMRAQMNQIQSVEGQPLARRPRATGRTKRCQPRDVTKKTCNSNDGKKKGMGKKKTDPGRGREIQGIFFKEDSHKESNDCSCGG

[3] = target: T3, Protein kinase C epsilon type (Homo sapiens) (UniProt Q02156); assay: Residual activity of PKCepsilon at 0.1 uM by microplate scintillation counting
T3 sequence (whole entry): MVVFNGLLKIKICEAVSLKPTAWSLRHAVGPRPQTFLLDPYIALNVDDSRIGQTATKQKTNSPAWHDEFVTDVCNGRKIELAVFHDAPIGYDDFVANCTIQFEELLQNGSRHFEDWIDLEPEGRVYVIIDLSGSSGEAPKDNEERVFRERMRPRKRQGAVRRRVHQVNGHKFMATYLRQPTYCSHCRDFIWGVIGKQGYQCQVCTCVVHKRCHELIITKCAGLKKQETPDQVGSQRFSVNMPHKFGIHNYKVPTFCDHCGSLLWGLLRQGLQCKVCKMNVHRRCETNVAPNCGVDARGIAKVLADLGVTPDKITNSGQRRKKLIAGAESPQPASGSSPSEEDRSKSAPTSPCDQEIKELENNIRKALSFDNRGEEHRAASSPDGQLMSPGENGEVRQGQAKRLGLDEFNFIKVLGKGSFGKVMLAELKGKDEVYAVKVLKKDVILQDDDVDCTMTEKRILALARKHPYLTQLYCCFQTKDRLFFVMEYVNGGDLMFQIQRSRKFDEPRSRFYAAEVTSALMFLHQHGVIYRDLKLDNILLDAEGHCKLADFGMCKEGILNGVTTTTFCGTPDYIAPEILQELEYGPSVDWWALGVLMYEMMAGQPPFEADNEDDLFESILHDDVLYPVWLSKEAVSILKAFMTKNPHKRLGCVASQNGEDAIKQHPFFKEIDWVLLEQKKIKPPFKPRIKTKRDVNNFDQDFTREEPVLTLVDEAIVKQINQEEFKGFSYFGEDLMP

[4] = target: Serine/threonine-protein kinase PAK 3 (Homo sapiens) (UniProt O75914); assay: Residual activity of PAK3 at 0.1 uM by microplate scintillation counting
Sequence of Serine/threonine-protein kinase PAK 3 (Homo sapiens) (O75914 whole entry, looked up): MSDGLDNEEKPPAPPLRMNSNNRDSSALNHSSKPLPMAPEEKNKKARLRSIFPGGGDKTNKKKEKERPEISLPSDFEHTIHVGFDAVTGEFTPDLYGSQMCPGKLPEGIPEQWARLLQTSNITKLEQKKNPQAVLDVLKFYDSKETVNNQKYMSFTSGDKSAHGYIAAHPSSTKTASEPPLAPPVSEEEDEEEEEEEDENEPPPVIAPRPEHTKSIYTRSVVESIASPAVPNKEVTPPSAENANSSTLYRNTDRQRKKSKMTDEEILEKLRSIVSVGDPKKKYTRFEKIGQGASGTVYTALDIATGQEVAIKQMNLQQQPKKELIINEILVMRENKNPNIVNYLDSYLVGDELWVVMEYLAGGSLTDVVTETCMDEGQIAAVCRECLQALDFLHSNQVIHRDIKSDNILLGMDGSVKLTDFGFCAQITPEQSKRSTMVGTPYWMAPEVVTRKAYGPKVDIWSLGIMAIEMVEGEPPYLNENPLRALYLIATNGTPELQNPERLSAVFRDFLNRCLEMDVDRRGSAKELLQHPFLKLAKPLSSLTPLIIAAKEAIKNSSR

residual activity [1] [%]	residual activity [2] [%]	residual activity [3] [%]	residual activity [4] [%]	SMILES
96	98	112	95	COc1cc2c(Oc3ccc(-c4nc5ccccc5s4)cc3)ncnc2cc1OCCCN1CCCC1
96	86	106	95	COc1cc2c(Oc3ccc(-c4nc5ccccc5s4)cc3)ncnc2cc1OCCCN1CCN(C)CC1
104	72	108	97	COc1cc2c(Oc3ccc(-c4nc5ccccc5s4)cc3F)ncnc2cc1OCCCN1CCN(C)CC1
